Consider 41 molecules from ChEMBL document CHEMBL3039007, “Structure-based identification of OATP1B1/3 inhibitors” (Mol Pharmacol, 2013).

Data set [1] has as its target T1, Solute carrier organic anion transporter family member 1B1 (Homo sapiens, UniProt Q9Y6L6).
T1 sequence (Q9Y6L6 whole entry): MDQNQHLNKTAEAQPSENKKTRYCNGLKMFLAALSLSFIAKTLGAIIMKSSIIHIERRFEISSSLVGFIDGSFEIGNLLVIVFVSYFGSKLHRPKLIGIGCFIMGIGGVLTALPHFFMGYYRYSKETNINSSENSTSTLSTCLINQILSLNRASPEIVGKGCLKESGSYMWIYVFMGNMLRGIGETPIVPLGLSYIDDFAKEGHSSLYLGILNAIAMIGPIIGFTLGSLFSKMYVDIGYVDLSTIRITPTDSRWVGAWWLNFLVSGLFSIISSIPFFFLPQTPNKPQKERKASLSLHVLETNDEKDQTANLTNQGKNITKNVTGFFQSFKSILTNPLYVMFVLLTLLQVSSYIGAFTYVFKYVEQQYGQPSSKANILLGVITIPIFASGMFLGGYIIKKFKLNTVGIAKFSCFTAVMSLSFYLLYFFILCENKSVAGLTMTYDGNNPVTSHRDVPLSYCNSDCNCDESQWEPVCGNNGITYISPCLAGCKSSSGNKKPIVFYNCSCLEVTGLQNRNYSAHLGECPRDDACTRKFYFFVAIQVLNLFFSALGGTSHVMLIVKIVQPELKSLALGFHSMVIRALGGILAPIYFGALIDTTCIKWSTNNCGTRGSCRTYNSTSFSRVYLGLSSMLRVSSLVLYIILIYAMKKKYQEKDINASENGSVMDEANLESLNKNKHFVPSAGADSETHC
As to conditions: chinese hamster, cho, 10 µM.

Data set [2] concerns the target T2, Solute carrier organic anion transporter family member 1B3 (Homo sapiens, UniProt Q9NPD5).
T2 sequence (Q9NPD5 whole entry): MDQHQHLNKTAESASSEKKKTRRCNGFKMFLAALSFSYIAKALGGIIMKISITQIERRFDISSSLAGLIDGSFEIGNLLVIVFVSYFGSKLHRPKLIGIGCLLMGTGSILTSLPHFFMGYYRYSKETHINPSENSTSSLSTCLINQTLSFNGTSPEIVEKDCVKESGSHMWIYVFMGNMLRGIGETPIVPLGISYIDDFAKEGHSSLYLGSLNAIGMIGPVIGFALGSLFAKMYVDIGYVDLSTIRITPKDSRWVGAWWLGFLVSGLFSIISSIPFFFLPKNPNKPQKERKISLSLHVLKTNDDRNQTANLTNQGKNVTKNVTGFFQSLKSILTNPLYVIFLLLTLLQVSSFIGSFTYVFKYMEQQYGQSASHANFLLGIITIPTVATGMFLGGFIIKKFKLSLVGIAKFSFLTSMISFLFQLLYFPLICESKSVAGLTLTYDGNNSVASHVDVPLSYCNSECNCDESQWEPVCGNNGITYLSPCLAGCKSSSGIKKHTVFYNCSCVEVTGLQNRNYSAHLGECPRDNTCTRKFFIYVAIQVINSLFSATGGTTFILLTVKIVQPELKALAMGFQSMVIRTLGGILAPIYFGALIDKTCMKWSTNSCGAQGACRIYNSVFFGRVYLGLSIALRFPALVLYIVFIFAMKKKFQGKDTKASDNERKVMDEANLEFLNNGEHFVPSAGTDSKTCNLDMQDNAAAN
As to conditions: chinese hamster, cho, 10 µM.

Regarding `CN(C)CCC[C@@]1(c2ccc(F)cc2)OCc2cc(C#N)ccc21.O=C(O)C(=O)O` [ESCITALOPRAM OXALATE], the residual activity in data set [1] was found to be 102.3%; in data set [2], 117.8%.
Regarding `O=c1ccc2cc(O)c(O)cc2o1` [ESCULETIN], the residual activity in data set [1] amounted to 111.1%; in data set [2], 105.3%.
For `C[C@]12CC[C@@H]3c4ccc(O)cc4CC[C@H]3[C@@H]1CC[C@@H]2OC(=O)CCC1CCCC1` [ESTRADIOL CYPIONATE] the same measures were 81.59% and 90.49%.
For `COc1ccc2c(c1)CC[C@@H]1[C@@H]2CC[C@]2(C)[C@@H](O)CC[C@@H]12` [ESTRADIOL METHYL ETHER] the same measures were 137.4% and 110%.
As for `CCCCC(=O)O[C@H]1CC[C@H]2[C@@H]3CCc4cc(O)ccc4[C@H]3CC[C@]12C` [ESTRADIOL VALERATE], the residual activity amounted to 291.5% in data set [1] and 129.8% in data set [2].
As to `C[C@]12CC[C@@H]3c4ccc(O)cc4CC[C@H]3[C@@H]1CC[C@@H]2O` [ESTRADIOL], the residual activity came to 125.9% in data set [1] and 131.9% in data set [2].
On the same counts, the results for `C[C@]12CC[C@@H]3c4ccc(O)cc4CC[C@H]3[C@@H]1C[C@@H](O)[C@@H]2O` [ESTRIOL] are 110.2% and 102.7%.
For `CC(=O)Oc1ccc2c(c1)CCC1C2CC[C@]2(C)C(=O)CCC12` (some centres not stated) [ESTRONE ACETATE], the residual activity in data set [1] amounted to 204.8%; in data set [2] it was 109.5%.
On the same counts, the results for `C[C@]12CCC3c4ccc(OC(=O)c5ccccc5)cc4CCC3C1CCC2=O` (some centres not stated) [ESTRONE BENZOATE] are 121% and 95.01%.
On the same counts, the results for `O=C(Cn1ccnc1[N+](=O)[O-])NCCO` [ETANIDAZOLE] are 72.81% and 76.09%.
On to `C=C(CC)C(=O)c1ccc(OCC(=O)O)c(Cl)c1Cl` [ETHACRYNIC ACID], for which the results for the residual activity in data set [1] and in data set [2] were 171.8% and 111.8%, respectively.
Regarding `C#C[C@]1(O)CC[C@H]2[C@@H]3CCc4cc(O)ccc4[C@H]3CC[C@@]21C` [ETHINYL ESTRADIOL], the residual activity in data set [1] worked out at 13.12%; in data set [2], 61.16%.
On to `CCN(CC)C(C)CN1c2ccccc2Sc2ccccc21.Cl` (configuration not stated) [ETHOPROPAZINE HYDROCHLORIDE], for which the residual activity in data set [1] worked out at 60.6%; in data set [2], 85.68%.
In the case of `CCC1(C)CC(=O)NC1=O` (configuration not stated) [ETHOSUXIMIDE], the residual activity is 137.5% in data set [1] and 102.9% in data set [2].
For `CCOC(=O)c1c(C)cc(OC)cc1O` [ETHYL EVERNINATE] the same measures were 111.1% and 102.6%.
Consider `CCOC(=O)c1c(C)cc(O)c(C=O)c1O` [ETHYL HEMATOMMATE], for which the residual activity came out at 61.89% in data set [1] and 77.96% in data set [2].
With `CCC(N)C(O)c1ccc(O)c(O)c1.Cl` (configuration not stated) [ETHYLNOREPINEPHRINE HYDROCHLORIDE], the residual activity in data set [1] was determined as 130.8%; in data set [2], 104.2%.
On the same counts, the results for `CCc1cccc2c3c([nH]c12)C(CC)(CC(=O)O)OCC3` (configuration not stated) [ETODOLAC] are 68.27% and 103.6%.
Turning to `Cn1c(=O)c2c(ncn2CCO)n(C)c1=O` [ETOFYLLINE], the residual activity came out at 64.41% in data set [1] and 86.25% in data set [2].
On the same counts, the results for `CC1CC(OC(=O)C(O)c2ccccc2)CC(C)(C)N1C.Cl` (configuration not stated) [EUCATROPINE HYDROCHLORIDE] are 84.86% and 107.8%.
For `C[n+]1c2cc(N)ccc2cc2ccc(N)cc21.[Cl-]` [EUFLAVINE] the same measures were 105.1% and 93.94%.
On the same counts, the results for `Cc1cc(=O)c2c(O)c(C)c(O)cc2o1` [EUGENITOL] are 77.61% and 88.28%.
`C=CCc1ccc(O)c(OC)c1` [EUGENOL]: the figures for the residual activity in data set [1] and in data set [2] were 106% and 104.3%, respectively.
On to `C=C(C)c1cc2cc(C(C)=O)c(O)cc2o1` [EUPARIN], for which the values for the residual activity in data set [1] and in data set [2] were 94.93% and 98.85%, respectively.
Turning to `COc1ccc(-c2cc(=O)c3c(O)c(OC)c(OC)cc3o2)cc1O` [EUPATORIN], the residual activity in data set [1] is 87.53%; in data set [2] it was 72.8%.
In the case of `COc1cc(C)c(C(=O)O)c(O)c1` [EVERNINIC ACID], the results for the residual activity in data set [1] and in data set [2] were 82.73% and 90.88%, respectively.
On the same counts, the results for `COc1c2ccoc2nc2c(OC)c(OCC(O)C(C)(C)O)ccc12` (configuration not stated) [EVOXINE] are 94% and 94.63%.
For the molecule `CCCCCCOc1ccccc1C(N)=O` [EXALAMIDE], the residual activity came out at 188.8% in data set [1] and 129.1% in data set [2].
For `O=C1[C@H](CC[C@H](O)c2ccc(F)cc2)[C@@H](c2ccc(O)cc2)N1c1ccc(F)cc1` [EZETIMIBE] the same measures were 51.36% and 30.63%.
Regarding `CC(=O)OCC(CCn1cnc2cnc(N)nc21)COC(C)=O` [FAMCICLOVIR], the figures for the residual activity in data set [1] and in data set [2] were 68.22% and 68.05%, respectively.
For `COc1ccc2cc1Oc1ccc(cc1)C[C@H]1c3cc(c(OC)cc3CCN1C)Oc1c(OC)c(OC)cc3c1[C@H](C2)N(C)CC3` [FANCHININ] the same measures were 75.74% and 220.2%.
As for `CC(C)=CCC/C(C)=C/CC/C(C)=C/CO` [FARNESOL], the residual activity in data set [1] worked out at 89.38%; in data set [2], 89.91%.
For `CC(C)(OC(=O)c1ccccc1)[C@@H]1Cc2cc3ccc(=O)oc3cc2O1` [FELAMIDIN] the same measures were 115.2% and 168.9%.
On the same counts, the results for `COC(=O)Nc1nc2ccc(Sc3ccccc3)cc2[nH]1` [FENBENDAZOLE] are 105.4% and 102.5%.
On the same counts, the results for `O=C(O)CCC(=O)c1ccc(-c2ccccc2)cc1` [FENBUFEN] are 172.9% and 86.33%.
On to `CCC(C(N)=O)c1ccccc1` (configuration not stated) [FENBUTYRAMIDE], for which the residual activity in data set [1] is listed as 101.6%; in data set [2] it was 100.4%.
Turning to `CC(NCCC(c1ccccc1)c1ccccc1)c1ccccc1.Cl` (configuration not stated) [FENDILINE HYDROCHLORIDE], the residual activity in data set [1] was 90.27%; in data set [2] it was 114.6%.
For `CC(C)OC(=O)C(C)(C)Oc1ccc(C(=O)c2ccc(Cl)cc2)cc1` [FENOFIBRATE], the residual activity in data set [1] is given as 82.56%; in data set [2], 90.21%.
For the molecule `CC(C(=O)O)c1cccc(Oc2ccccc2)c1` (configuration not stated) [FENOPROFEN], the residual activity in data set [1] amounted to 160.2%; in data set [2] it was 96.37%.
`Cl.O=C1NCC2(CCN(CCc3ccccc3)CC2)O1` [FENSPIRIDE HYDROCHLORIDE]: the residual activity in data set [1] was found to be 107.4%; in data set [2], 93.02%.
As for `COP(=S)(OC)Oc1ccc(SC)c(C)c1` [FENTHION], the residual activity in data set [1] was 116.2%; in data set [2], 100.4%.

One may read the residual activity as the signal under treatment as a percentage of the control signal.
